In assay [1] the test system is HSP70 and client protein (CDK4) expression in HT29 cells. As to the kind of experiment: Western blotting of HSP70 and CDK4 in HT29 cells. The format is cell-based, human. Particulars: 24 hours, various concentrations. Here is the method: (§1) The cellular effects of HSP90 inhibitors can be measured using a number of molecular markers. As already mentioned, HSP90 inhibition leads to the depletion of several important cellular signalling proteins. […] Depletion is normally observed by 6 h, with maximum depletion occurring at 24 h. As well as RAF-1, depletion of several other HSP90 client proteins can be measured by immunoblotting e.g., CDK4, ERBB2. However, it is important to note that some of these proteins are cell line specific e.g., ERBB2 is expressed mainly in breast, thyroid, kidney and some ovarian tumour cell lines. Another very important marker of HSP90 inhibition is heat shock protein 70 (HSP70). A HSF-1 (heatshock factor 1) dependent increase in HSP70 levels has been reported by us and other groups (see, e.g., Whitesell et al., 1994; Clarke et al., 2000) and this effect can serve as a positive indicator of HSP90 inhibitor action. The immunoblotting method described is based on standard techniques but is described in detail for ease of reference.
Prepare as required and store at −20° C. • (4) Bicinchoninic acid (BCA) protein assay reagents (PerBio Science UK, Ltd., Chester, UK). • (5) Casein blocking buffer (0.5% casein, 0.02% thimerosal, in PBS). Store at 4° C. for up to 2 weeks. • (6) Wash buffer (phosphate buffered saline, PBS) containing 0.05% Tween 20). • (7) Tris-glycine gradient polyacrylamide precast gels (4–20%) (1 mm thick) (Novex, InVitrogen, Groningen, NL). • (8) Nitro-cellulose membrane (0.2 μm pore size) (InVitrogen, Groningen, NL). • (9) Ponceau Red stain (2% w/v in 30% TCA/30% […], Sigma Aldrich Ltd., Pool, UK). • (10) Enhanced chemiluminescence (SuperSignal) reagents (PerBio Science UK, Ltd., Chester, UK). • (11) Photographic film (Hyperfilm ECL, Amersham Pharmacia Biotech, Little Chalfont, Bucks, UK). Method
The following protocol was used: • (1) Lyse cells (approx 4×10^6) in 100 μl lysis buffer for 30 minutes on ice. When adding the lysis buffer, shear cells by pipetting up and down using a Gilson P200 pipette. • (2) Spin lysates for 10 min at 13,000 rpm at 4° C., retrieve supernatant and store at −70° C. • (3) Determine protein concentration using BCA protein assay reagents. • (4) Load samples of cell lysates (50 μg protein/lane) onto gel and separate proteins by SDS-polyacrylamide gel electrophoresis (SDS-PAGE) using a 4–20% Tris-glycine gel. • (5) Transfer proteins to nitrocellulose membrane using optimum conditions for the equipment available. For example, 150 mA for 2 h using the Mighty Small transfer system (Hoeffer TE22 Mini Tank Transphor Unit, Amersham Pharmacia Biotech, Little Chalfont, Bucks, UK). […]
(§2) Comments • (1) The protein bands are normally evaluated visually. […]
Background: Immunoblotting shows a protein as a band on a membrane.

Assay [2] has as its system HCT116 human colon tumour cells. As to the kind of experiment: 96 h growth inhibition assay (SRB), HCT116. The assay is classed as cell-based. Particulars: HCT116, 96 h. Here is the method: (§3) The growth inhibition assay employed was based on that described previously (Kelland et al., 1993). HCT116 and HT29 human colon tumour cells (American Tissue Culture Collection) were seeded into 96-well tissue culture plates (approximately 1600–2000 cells per well) and allowed to attach for 36 hours. Eight wells were treated with a single concentration from a range of compound concentrations and incubated for 96 hours. Cells were fixed using ice cold 10% trichloroacetic acid (TCA). Plates were then washed five times with water, air dried, and stained with 0.4% sulphorhodamine B (SRB) in 1% acetic acid for 10 minutes. The SRB stain was solubilised in 10 mM Tris-HCl and the absorbance measured at 540 nm using a Titertek Multiscan MCC/340 MKII plate reader (Flow Laboratories, IEC, Basingstoke, N.H.). The absorbance values correspond to total protein content and are used as a measure of cell growth.

Assay [3] has as its system HT29 human colon tumour cells. The assay is described as follows: 96 h growth inhibition assay (SRB), HT29. The format is cell-based. The conditions noted are these: HT29, 96 h. Here is the method:
as §3

Assay [4] deals with HSP70 and RAF-1 expression in A2780 human ovarian cancer cells. As to the kind of experiment: Western blotting of HSP70 and RAF-1 in A2780 cells. The format is cell-based. Particulars: 60 nM (5×IC50), various times. The protocol:
as §1
Prepare as required and store at −20° C. • (4) Bicinchoninic acid (BCA) protein assay reagents (PerBio Science UK, Ltd., Chester, UK). • (5) Casein blocking buffer (0.5% casein, 0.02% thimerosal, in PBS). […]
as §2

A further assay has as its system HSP70 in HCT116 cells. The assay is described as follows: Cell-based ELISA for HSP70 expression. The conditions noted are these: HCT116, 1 μM compound. Also noted: species or system human. From the text: Cell-based ELISA methods (see, e.g., Stockwell et al., 1999; Versteeg et al., 2000) offer several advantages for evaluating the pharmacodynamic effects of novel mechanism-based inhibitors and may be the method of choice for comparing inhibitors that are identified during the iterative process of lead identification and optimisation. The technique can be used to rapidly rank the effectiveness of compounds as well as to investigate the molecular mechanisms of their action. The increased sample throughput possible with ELISA means that compounds can be simultaneously studied in multiple replicates at different doses and exposure times. […] The assays are carried out directly on cells grown and treated in microtitre plates, thereby removing the necessity for preparing cell lysates. ELISA techniques can in theory be applied to any cellular protein or post-translational modification for which an antibody is available and results are at least semi-quantitative.
Chemicals are of the highest purity commercially available. • (1) Human colon tumour cell lines (e.g., HCT116 and HT29 from American Tissue Culture Collection, ATCC) grown in Dulbecco's modified Eagle's medium (DMEM) (CSSD, Institute of Cancer Research, London, UK) supplemented with […] glucose, 10% foetal bovine serum (FBS), 200 mM L-glutamine, and 5 ml non-essential amino acids in a humidified atmosphere of 5% CO2 at 37° C. • (2) 96 well Falcon clear microtitre tissue culture plates (BD Labware, Hospital Management and Supplies, Ltd., Northampton, UK). • (3) DMSO diluted in dH2O (8%). • (4) HSP90 inhibitors at required concentration dissolved in DMSO. • (5) Fixing solution (0.25% glutaraldehyde, 3% paraformaldehyde and 0.25% Triton-X 100) (all from Sigma Aldrich Ltd, Poole, UK). • (6) Blocking solution (5% dried milk (Marvel) in PBS) prepared daily. • (7) Anti HSP70 monoclonal antibody (SPA 810, Bioquote, York, UK). • (8) DELFIA® wash buffer, enhancement solution, assay buffer and Europium labelled anti-mouse IgG (1244–1330) (PerkinElmer Life Sciences, Milton Keynes, UK). • (9) BCA protein assay reagents (Perbio Science UK Ltd., Chester, UK). Method
Incubate at 37° for 30 min. • (6) Wash plates twice in PBS using an automated washer (Wellwash 5000 ten plate stacker-washer or Wellwash Ascent single plate washer, Thermo Labsystems, Basingstoke, UK). • (7) Block the plates by addition of blocking solution (100 μl) and incubate for 30 min. • (8) Add 100 μl primary antibody diluted to 0.95 μg/ml in PBS to each well and incubate plate for 1.5 h. Wash plates once with DELFIA® wash solution. • (9) Add 100 μl Europium labelled anti-mouse IgG diluted in DELFIA® assay buffer to 75 ng/ml and incubate for 1 hour. Wash plates once with DELFIA® wash solution as before. • (10) Add 100 μl DELFIA® enhancement solution to each well. • (11) Measure the fluorescence (615 nm) in Victor 2 1420 multilabel counter (Perkin Elmer Life Sciences, Milton Keynes, UK) using time-resolved measurement mode. • (12) Wash plates once with PBS and measure protein concentration by the addition of 200 μl BCA reagent to each well, shake for 1–2 min and incubate for 30 mins at 37° C. Read absorption at 570 nm. • (13) Express ELISA results by normalising to protein in the well (Eu counts (cpm) divided by OD@ 570 nm). Compare the effect of HSP90 inhibitors on HSP70 expression with DMSO treated controls. Comments • (1) Cells plated into 96 well plates are incubated in a plastic box to reduce evaporation from the outside wells. […]
A general note: In an ELISA, binding on a coated surface is turned into a signal by an enzyme label.

A further assay relates to HCT116 cells. The assay is described as follows: Cellular protein by BCA assay after compound exposure (ELISA plates). The assay is classed as cell-based, human. The conditions noted are these: HCT116, 1 μM compound. Here is the method:
Incubate at 37° for 30 min. • (6) Wash plates twice in PBS using an automated washer (Wellwash 5000 ten plate stacker-washer or Wellwash Ascent single plate washer, Thermo Labsystems, Basingstoke, UK). • (7) Block the plates by addition of blocking solution (100 μl) and incubate for 30 min. • (8) Add 100 μl primary antibody diluted to 0.95 μg/ml in PBS to each well and incubate plate for 1.5 h. Wash plates once with DELFIA® wash solution. • (9) Add 100 μl Europium labelled anti-mouse IgG diluted in DELFIA® assay buffer to 75 ng/ml and incubate for 1 hour. Wash plates once with DELFIA® wash solution as before. • (10) Add 100 μl DELFIA® enhancement solution to each well. • (11) Measure the fluorescence (615 nm) in Victor 2 1420 multilabel counter (Perkin Elmer Life Sciences, Milton Keynes, UK) using time-resolved measurement mode. • (12) Wash plates once with PBS and measure protein concentration by the addition of 200 μl BCA reagent to each well, shake for 1–2 min and incubate for 30 mins at 37° C. Read absorption at 570 nm. • (13) Express ELISA results by normalising to protein in the well (Eu counts (cpm) divided by OD@ 570 nm). Compare the effect of HSP90 inhibitors on HSP70 expression with DMSO treated controls. Comments • (1) Cells plated into 96 well plates are incubated in a plastic box to reduce evaporation from the outside wells. In addition, ELISA incubation steps are carried out in a 37° C. laboratory incubator and in a moist environment e.g., plastic box lined with damp tissue paper. • (2) All additions to the microtitre plate can be achieved using a multichannel pipette or for larger numbers of plates an automated dispenser such as a Multidrop (Thermo Labsytems, Basingstoke, UK). • (3) For convenience, if the effects of compounds are being studied at several time points the ELISA can be carried out in batches, plates being stored (in a container) at 4° C. following the fixation step. In this case the plates are washed only once following fixation and again immediately before the first ELISA step (step 6 above). In addition all the plates can be stored for subsequent protein estimation. • (4) Reproducibility of both the measured Europium counts and the protein measurements was between 10–15% (CV). • (5) DELFIA® reagents (see, e.g., Hemmila and Webb, 1997) have been routinely used in cell-based ELISAs. This endpoint provides high sensitivity and the time-resolved measurements reduce interference from non-specific fluorescence. However, it is also possible to use a horse radish peroxidase second antibody conjugate and either a calorimetric (e.g., tetramethylbenzidine) or chemiluminescent reagent (e.g., ECL reagent (Amersham Pharmacia Biotech, Little Chalfont, Bucks, UK) for endpoint measurement. • (6) It is recommended that a blank consisting of second-antibody only (i.e., no first antibody) together with an appropriate first antibody control (e.g., isotype matched IgG) are included in assays during the process of optimising reagent concentrations. Growth Inhibition Assay
The effect of various compounds of the present invention on the expression of the molecular marker HSP70 was determined using the cell-based ELISA and a specific monoclonal antibody to HSP70 in HCT116 cells, as described above. Cellular protein following compound exposure was determined using BCA assay as described in the method.

For the compound `C=CCNC1=C2C[C@@H](C)C[C@H](OC)[C@H](O)[C@@H](C)/C=C(\C)[C@H](OC(N)=O)[C@@H](OC)/C=C\C=C(/C)C(=O)NC(=CC1=O)C2=O` [Example 17AAG, 17-allylamino-17-demethoxygeldanamycin, reference compound], in assay [1], the “CDK4 client protein expression (immunoblot)” value is given as “depleted” and the “HSP70 expression (immunoblot)” value is listed as “induced”. For the same compound, in assay [2], the IC50 (as a rule, the concentration that inhibits the measured activity by half) is 0.1 µM. In addition, inhibition in assay [3] was half-maximal at 0.01 µM (IC50). Moreover, in assay [4], the “HSP70 expression (immunoblot)” value is given as “induced” and the “RAF-1 expression (immunoblot)” value is “depleted”.

Take `COC1=C2C[C@@H](C)C[C@H](OC)[C@H](O)[C@@H](C)/C=C(\C)[C@H](OC(N)=O)[C@@H](OC)/C=C\C=C(/C)C(=O)NC(=CC1=O)C2=O` [Geldanamycin, geldanamycin, reference compound]: the “% increase in HSP70 (Normalised Europium Counts compared to DMSO controls)” value with HSP70 in HCT116 cells ((48 h)) is reported as 270%; in the assay with HSP70 in HCT116 cells ((time not given)), 169%. The figures for the “Cellular Protein (% DMSO controls)” value with HCT116 cells ((48 h)) and in the assay with HCT116 cells ((time not given)) were 46.3% and 75.3%, respectively. The IC50 in assay [2] (Homo sapiens, HCT-116) was 0.07 µM; in assay [3] (Homo sapiens, HT-29) it was 0.05 µM.

The record behind these values is US7247734B2 (Vernalis (Cambridge) Limited, priority 2001, dated 2007).
